Our source for the solubility values is patent US9801831B2, “Device for controlled release of a bioactive agent” (Nanyang Technological University, priority 2010, dated 2017).

In general, solubility refers to the concentration that dissolves in the medium under given conditions. A lower solubility goes with a poorly soluble substance.

The nature of this data set: Solubility limit of paclitaxel in release buffer. It is filed as physicochemical. Particulars: PBS/2% Tween-80 release buffer, pH 7.4, aqueous with cosolvent or surfactant or cyclodextrin.

Values after ≈ are worked out from the molar mass of the structure shown.

Procedure: The in-vitro release of paclitaxel was conducted in 2 mL of PBS/% Tween 80 release buffer (pH 7.4) at 37° C. using 6 mm punch-outs (1 punch-out/well) in triplicate. At predetermined time-points 2 mL of buffer was removed and another 2 mL replaced with PBS/Tween 80 release buffer, maintaining sink conditions throughout the release. Withdrawn aliquots (or standards/dissolutions samples) were filtered through a 0.2 μm PTFE syringe filter directly into HPLC vials and immediately capped. Paclitaxel was quantified with an Agilent Series 1100 HPLC (Santa Clara, Calif., USA) equipped with UV/Vis detector, autosampler, and column heater set to 35° C. A ZORBAX Eclipse XDB-C18 (5 μm) column of acetonitrile/water 60/40 (v/v) served as the mobile buffer, eluting the paclitaxel peak at ˜5.4 minutes with a flow rate 1.0 mL/min and the UV/Vis detector recording at 227 nm. A total dissolution study of the 6 mm discs in triplicate was conducted by dissolving the films in acetone and diluting in release buffer to determine the surface concentration of paclitaxel (μg/mm^2).

`CC(=O)O[C@H]1C(=O)[C@@]2(C)[C@H]([C@H](OC(=O)c3ccccc3)[C@]3(O)C[C@H](OC(=O)[C@H](O)[C@@H](NC(=O)c4ccccc4)c4ccccc4)C(C)=C1C3(C)C)[C@]1(OC(C)=O)CO[C@@H]1C[C@@H]2O` [paclitaxel] registered a solubility of 20 µg/mL (≈ 23.4 µM).
